From ChEMBL document CHEMBL5726231, “Btk inhibitors” (2017)

Target: Tyrosine-protein kinase BTK (Homo sapiens, UniProt Q06187)
Experiment: To each well of a black non-binding surface Corning 384-well microplate (Corning Catalog #3820), 5 nL of compound (2000 fold dilution in final assay volume of 10 μL) was dispensed, followed by the addition of 7.5 μL of 1× kinase buffer (50 mM Hepes 7.5, 10 mM MgCl2, 0.01% Brij-35, 1 mM EGTA, 0.05% BSA & 1 mM DTT) containing 5.09 pg/μL (66.67 pM) of BTK enzyme (recombinant protein from baculovirus-transfected Sf9 cells: full-length BTK, 6HIS-tag cleaved). Following a 60 minute compound & enzyme incubation, each reaction was initiated by the addition of 2.5 μL 1× kinase buffer containing 8 μM biotinylated A5 peptide (Biotin-EQEDEPEGDYFEWLE-NH2), and 100 μM ATP. The final reaction in each well of 10 μL consists of 50 pM hBTK, 2 μM biotin-A5-peptide, and 25 μM ATP. Phosphorylation reactions were allowed to proceed for 120 minutes. Reactions were immediately quenched by the addition of 20 uL of 1× quench buffer (15 mM EDTA, 25 mM Hepes 7.3, and 0.1% Triton X-100) containing detection reagents (0.626 nM of LANCE-Eu-W1024-anti-phosphoTyrosine antibody, PerkinElmer and 86.8 nM of Streptavidin-conjugated Dylight 650, Dyomics/ThermoFisher Scientific). After 60 minutes incubation with detection reagents, reaction plates were read on a PerkinElmer EnVision plate reader using standard TR-FRET protocol. Briefly, excitation of donor molecules (Eu-chelate:anti-phospho-antibody) with a laser light source at 337 nm produces energy that can be transferred to Dylight-650 acceptor molecules if this donor:acceptor pair is within close proximity. Fluorescence intensity at both 665 nm (acceptor) and 615 nm (donor) are measured and a TR-FRET ratio calculated for each well (acceptor intensity/donor intensity).

Tyrosine-protein kinase BTK, sequence (Q06187 whole entry): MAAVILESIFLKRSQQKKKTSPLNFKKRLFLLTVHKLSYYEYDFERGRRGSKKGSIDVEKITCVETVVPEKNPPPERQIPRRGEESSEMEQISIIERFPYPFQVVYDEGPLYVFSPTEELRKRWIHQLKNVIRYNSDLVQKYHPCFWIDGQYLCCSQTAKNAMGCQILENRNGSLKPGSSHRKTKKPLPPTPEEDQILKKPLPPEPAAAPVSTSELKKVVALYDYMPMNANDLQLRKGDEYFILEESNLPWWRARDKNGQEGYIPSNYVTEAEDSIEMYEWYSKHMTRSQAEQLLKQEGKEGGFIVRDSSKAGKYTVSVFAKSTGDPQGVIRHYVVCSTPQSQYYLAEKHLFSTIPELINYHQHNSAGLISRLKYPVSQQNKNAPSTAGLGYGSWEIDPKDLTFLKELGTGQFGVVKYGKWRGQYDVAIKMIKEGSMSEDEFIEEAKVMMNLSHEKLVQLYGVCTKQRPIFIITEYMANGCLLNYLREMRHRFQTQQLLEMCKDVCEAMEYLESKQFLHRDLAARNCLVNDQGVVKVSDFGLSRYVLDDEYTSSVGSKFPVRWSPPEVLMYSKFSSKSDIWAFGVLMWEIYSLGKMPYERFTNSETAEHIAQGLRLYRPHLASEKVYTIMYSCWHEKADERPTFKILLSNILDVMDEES

| IC50 | SMILES |
| --- | --- |
| 1.8 nM | COCCC(=O)N1CCC[C@@H](c2nn(-c3ccc(Oc4ccccc4)cc3)c3c(N)nccc23)C1 |
| 9.2 nM | Cc1ncn(C)c1C(=O)N1CCC[C@@H](c2nn(-c3ccc(Oc4ccccc4)cc3)c3c(N)nccc23)C1 |
| 1 nM | C[C@@H](O)C(=O)N1CCC[C@@H](c2nn(-c3ccc(Oc4ccccc4)cc3)c3c(N)nccc23)C1 |
| 2.7 nM | Cn1cncc1C(=O)N1CCC[C@@H](c2nn(-c3ccc(Oc4ccccc4)cc3)c3c(N)nccc23)C1 |
| 3.5 nM | COCCOCC(=O)N1CCC[C@@H](c2nn(-c3ccc(Oc4ccccc4)cc3)c3c(N)nccc23)C1 |
| 3.3 nM | Nc1nccc2c([C@@H]3CCCN(C(=O)C4CC4)C3)nn(-c3ccc(Oc4ccccc4)cc3)c12 |
| 2 nM | CCC(=O)N1CCC[C@@H](c2nn(-c3ccc(Oc4ccccc4)cc3)c3c(N)nccc23)C1 |
| 2.3 nM | C[C@H](O)C(=O)N1CCC[C@@H](c2nn(-c3ccc(Oc4ccccc4)cc3)c3c(N)nccc23)C1 |
| 5.5 nM | CO[C@H](C)C(=O)N1CCC[C@@H](c2nn(-c3ccc(Oc4ccccc4)cc3)c3c(N)nccc23)C1 |
| 13.7 nM | Cc1noc(C)c1C(=O)N1CCC[C@@H](c2nn(-c3ccc(Oc4ccccc4)cc3)c3c(N)nccc23)C1 |
| 1 nM | CC#CC(=O)N1CCC[C@@H](c2nn(-c3ccc(Oc4ccccc4)cc3)c3c(N)nccc23)C1 |
| 30.8 nM | Nc1nccc2c([C@@H]3CCCNC3)nn(-c3ccc(Oc4ccccc4)cc3)c12 |
| 3.5 nM | Nc1nccc2c([C@@H]3CCCN(C(=O)C4CCC4)C3)nn(-c3ccc(Oc4ccccc4)cc3)c12 |
| 2.7 nM | COCC(=O)N1CCC[C@@H](c2nn(-c3ccc(Oc4ccccc4)cc3)c3c(N)nccc23)C1 |
| 11.8 nM | N#CC1(C(=O)N2CCC[C@@H](c3nn(-c4ccc(Oc5ccccc5)cc4)c4c(N)nccc34)C2)CC1 |
| 3.5 nM | CCOCC(=O)N1CCC[C@@H](c2nn(-c3ccc(Oc4ccccc4)cc3)c3c(N)nccc23)C1 |
| 8.9 nM | Nc1nccc2c([C@@H]3CCCN(C(=O)C4CC(F)(F)C4)C3)nn(-c3ccc(Oc4ccccc4)cc3)c12 |
| 2 nM | CC(=O)N1CCC[C@@H](c2nn(-c3ccc(Oc4ccccc4)cc3)c3c(N)nccc23)C1 |
| 0.66 nM | C=CC(=O)N1CCC[C@@H](c2nn(-c3ccc(Oc4ccccc4)cc3)c3c(N)nccc23)C1 |
| 3.3 nM | CC1(C(=O)N2CCC[C@@H](c3nn(-c4ccc(Oc5ccccc5)cc4)c4c(N)nccc34)C2)CC1 |
| 3.7 nM | CC(C)C(=O)N1CCC[C@@H](c2nn(-c3ccc(Oc4ccccc4)cc3)c3c(N)nccc23)C1 |
| 3.9 nM | CO[C@@H](C)C(=O)N1CCC[C@@H](c2nn(-c3ccc(Oc4ccccc4)cc3)c3c(N)nccc23)C1 |
| 3 nM | Nc1nccc2c([C@@H]3CCCN(C(=O)C4(O)CC4)C3)nn(-c3ccc(Oc4ccccc4)cc3)c12 |
